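Five compound concentrations were applied to cells in 96-well plates for 48 hours; endpoints were derived by simple linear interpolation of the resulting dose-response curve. Abbreviation: GI50, concentration required for 50% inhibition of growth.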 Active and inactive are the calls of the source. Cut-off read from the data, not from the text of the source: active = GI50 up to about 1.1 µM and inactive = higher. A value given as a limit tells only on which side of the number the result lay.

This is an account of results in ChEMBL document CHEMBL1201862, “PubChem BioAssay data set” (2004).

Holding throughout (assay): NCI-60 cell line screen, 48 h
Assay [1] concerns SW-620.
The subject of assay [2] is OVCAR-5.
In assay [3] the test system is SNB-75.
The subject of assay [4] is HOP-92.
In assay [5] the test system is OVCAR-4.
The subject of assay [6] is MCF7.
Assay [7] has as its system OVCAR-8.
Assay [8] deals with SNB-78.
In assay [9] the test system is LOX IMVI.
For assay [10], the system named is SK-MEL-28.
Assay [11] deals with OVCAR-3.
Assay [12] concerns SF-295.
Assay [13] relates to TK-10.
Assay [14] concerns Malme-3M.
The test system of assay [15] is 786-0.
In assay [16] the test system is NCI-H460.
For assay [17], the system named is K562.
Assay [18] has as its system RPMI-8226.
The subject of assay [19] is BT-549.
The subject of assay [20] is MDA-MB-231.

As to `COc1cccc2c1C(=O)c1c(O)c3c(c(O)c1C2=O)C[C@@](O)(C(C)O)C[C@@H]3OC1CC(N)C(O)C(C)O1` (stereo not given in full), the GI50 in assay [1] was 1.05 µM (active); in assay [2], 3.3 µM (inactive); in [3] it was 0.00982 µM (active); in assay [4], 0.502 µM (active); in [5] it was 4.99 µM (inactive); in assay [6] it was 0.738 µM (active). The GI50 was 1.14 µM (inactive) in [7]; 1.88 µM (inactive) in assay [8]; 0.524 µM (active) in assay [9]; 1.42 µM (inactive) in [10]; 2.4 µM (inactive) in assay [11]; 1.26 µM (inactive) in assay [12]. Also, the GI50 was 2.5 µM (inactive) in [13]; 0.491 µM (active) in assay [14]; 0.644 µM (active) in assay [15]; 0.329 µM (active) in [16]; 1.12 µM (active) in assay [17].
On to `C=CCNC1=C(C(=O)OCC)C(=O)CO1`, for which the GI50 in [1], in assay [2], in assay [3], in [4], in [5] and in assay [18] was > 100 µM (inactive) each time. For the same compound, the GI50 in [7], in assay [8], in assay [9], in assay [10], in assay [11] and in assay [12] was > 100 µM (inactive) each time. For the same compound, the GI50 in [13], in assay [14], in assay [15], in [16] and in assay [17] was > 100 µM (inactive) each time.
For `OCCCCOC(c1ccccc1)(c1ccccc1)c1ccccc1`, the GI50 in assay [1] was > 100 µM (inactive); in assay [2], > 100 µM (inactive); in assay [3] it was 67.5 µM (inactive); in assay [4] it was > 100 µM (inactive); in assay [5], > 100 µM (inactive); in assay [18], > 100 µM (inactive). Moreover, the GI50 in assay [7], in assay [8], in assay [9], in assay [10], in assay [11] and in [12] was > 100 µM (inactive) throughout. For the same compound, the GI50 in assay [13], in assay [14], in assay [15], in [16] and in assay [17] was > 100 µM (inactive) throughout.
With `CC(=O)C(O)N1C(=O)C=CC1=O` (stereo not given), the GI50 in assay [1] was 1.71 µM (inactive); in [2], 17.1 µM (inactive); in [3], 6.24 µM (inactive); in assay [19], 8 µM (inactive); in [4], 2.07 µM (inactive); in [6] it was > 25 µM (inactive). Also, the GI50 was 2.26 µM (inactive) in assay [18]; 6.22 µM (inactive) in assay [7]; 16.9 µM (inactive) in assay [8]; 4.43 µM (inactive) in assay [9]; 10.4 µM (inactive) in [10]; 17.6 µM (inactive) in assay [11]. The GI50 in assay [12] was 18.3 µM (inactive); in [13], 2.53 µM (inactive); in assay [14], 2.19 µM (inactive); in [15] it was 2.33 µM (inactive); in assay [16], 3.58 µM (inactive); in assay [17] it was > 25 µM (inactive). In addition, the GI50 in assay [20] was 5.05 µM (inactive).
As to `CCOC(=O)CNC1C(NC(C)=O)C(OC)OC2COC(c3ccccc3)OC21` (stereo not given), the GI50 in assay [1], in assay [2], in assay [3], in [4], in assay [5] and in assay [18] was > 100 µM (inactive) each time. Besides, the GI50 in assay [7], in assay [8], in assay [9], in assay [10], in assay [11] and in [12] was > 100 µM (inactive) each time. Further, the GI50 in assay [13], in [14], in assay [15], in [16] and in assay [17] was > 100 µM (inactive) each time.
For the compound `C=C1C(=O)OC2/C=C(\CO)C3OC3C3OC3(C)CC(OC(=O)/C(=C/C)COC(C)=O)C12` (stereo not given), the GI50 in assay [1] was 1.35 µM (inactive); in assay [2] it was 15.3 µM (inactive); in [3] it was 9.68 µM (inactive); in assay [19], 1.77 µM (inactive); in [4], 2.01 µM (inactive); in assay [5], 8.3 µM (inactive). Further, the GI50 was 3.94 µM (inactive) in assay [6]; > 100 µM (inactive) in [18]; 2.79 µM (inactive) in [7]; 1.73 µM (inactive) in [8]; 1.51 µM (inactive) in assay [9]; 1.82 µM (inactive) in assay [10]. Also, the GI50 in assay [11] is 3.52 µM (inactive); in [12], 10 µM (inactive); in [13], 2.94 µM (inactive); in [14], 1.67 µM (inactive); in [15], 2.29 µM (inactive); in assay [16], 12.2 µM (inactive). In addition, the GI50 in [17] is 16 µM (inactive); in [20] it was 6.04 µM (inactive).
With `C[n+]1c(Cl)cn2c3nc4ccccc4nc3c([O-])c(C#N)c21`, the GI50 is > 100 µM (inactive) in [1]; > 10 µM (inactive) in assay [2]; > 54.6 µM (inactive) in [3]; > 100 µM (inactive) in [19]; > 100 µM (inactive) in assay [4]; > 59 µM (inactive) in assay [5]. The GI50 in [6] is 18.1 µM (inactive); in assay [18] it was > 100 µM (inactive); in [7], > 100 µM (inactive); in [8], > 100 µM (inactive); in assay [9], > 100 µM (inactive); in [10], > 100 µM (inactive). Also, the GI50 in [11] is > 100 µM (inactive); in assay [12] it was > 100 µM (inactive); in assay [13], > 10 µM (inactive); in [14] it was > 100 µM (inactive); in [15], > 100 µM (inactive); in [16], 9.48 µM (inactive). Moreover, the GI50 in [17] and in assay [20] was > 100 µM (inactive) in each case.
Turning to `O=c1/c(=C/c2ccccc2F)sc2nc3ccccc3n12`, the GI50 in assay [1] was > 100 µM (inactive); in [2], > 100 µM (inactive); in assay [3], 57.4 µM (inactive); in [4], > 100 µM (inactive); in [5], > 100 µM (inactive); in assay [18], > 100 µM (inactive). Further, the GI50 is > 100 µM (inactive) in assay [7]; > 100 µM (inactive) in assay [8]; 91 µM (inactive) in [9]; > 100 µM (inactive) in assay [10]; > 100 µM (inactive) in [11]; > 100 µM (inactive) in [12]. The GI50 in [13], in [14], in assay [15], in [16] and in assay [17] was > 100 µM (inactive) each time.
As for `Cc1ccc(C(=O)NCc2ccccc2)cc1/N=N/N(C)C`, the GI50 in assay [1] is > 100 µM (inactive); in assay [2] it was > 100 µM (inactive); in assay [19] it was > 100 µM (inactive); in assay [4], 65 µM (inactive); in [5], > 76.2 µM (inactive); in [6], > 100 µM (inactive). The GI50 in assay [18] is 40.9 µM (inactive); in [7], > 100 µM (inactive); in assay [8], > 100 µM (inactive); in assay [9], 58.1 µM (inactive); in assay [10] it was > 96.6 µM (inactive); in assay [11], 44.3 µM (inactive). In addition, the GI50 was > 71.9 µM (inactive) in assay [12]; > 100 µM (inactive) in assay [13]; > 100 µM (inactive) in [14]; > 100 µM (inactive) in assay [15]; > 100 µM (inactive) in assay [16]; > 100 µM (inactive) in assay [17]. Besides, the GI50 in assay [20] was > 100 µM (inactive).
As to `CC(=O)Nc1ccccc1-c1cnc2ccccc2n1`, the GI50 in [1], in [2], in assay [3], in [4], in assay [5] and in [18] was > 100 µM (inactive) each time. The GI50 in assay [7], in [8], in assay [9], in assay [10], in assay [11] and in assay [12] was > 100 µM (inactive) each time. Besides, the GI50 in assay [13], in [14], in [15], in assay [16] and in assay [17] was > 100 µM (inactive) in each case.
